Test results taken from US20190117685A1, “PROCESS FOR THE IDENTIFICATION OF COMPOUNDS FOR TREATING CANCER” (FUNDACIÓN CENTRO NACIONAL DE INVESTIGACIONES ONCOLÓGICAS …, priority 2009, published 2019).
Non-standard residues stand in square brackets, D forms with d. Residues, ends and D or L forms follow the SMILES beside them. *: point of attachment. Sta = CC(C)C[C@H](N)[C@@H](O)CC(=O)O; Isovaleryl = CC(C)CC(=O)*; Cbz = O=C(OCc1ccccc1)*; CH2F = FC*

Legend:
SK-Mel-103 = experiment: Cell death by trypan blue exclusion, SK-Mel-103; format: cell-based, human
SK-Mel-103 cells [1] = experiment: Confocal microscopy of autolysosomes, lysosomal activity and endosomes; format: cell-based, human
From the text: An eGFP-LC3 fusion cloned into the pCNA expression vector was a gift from Gabriel Nidiez (University of Michigan Cancer Center). eGFP-LC3 and the fragments eGFP-Rab7wt, eGFP-Rab7 T22N, eGFP-Rab5wt, eGFP-Cherry-LC3 and Cherry-LC3 were cloned into the pLVO-puro lentiviral vector for stable gene transfer. Melanoma derived cells (i.e., SK-Mel-103) were infected with pLVO-eGFP-LC3 and selected with puromycin. GFP-LC3-associated fluorescence emission was imaged using a LEICA™ AF6000 fluorescence microscope and images were analyzed by LAS AF V1.9 (Leica, Solms, Germany). […] Images were analyzed by LCS (Leica, Solms, Germany). […] Co-localization images were analyzed with LAS AF V1.9 (Leica, Solms, Germany). […]
To independently monitor lysosomal activity during BO-110 treatment, cells were tested for the ability to process DQ-BSA (a derivative of BSA whose green fluorescence is quenched unless cleaved by proteolytic enzymes). […] Note that DQ-BSA emission was detected at the lysosomes, as indicated by colocalization with LYSOTRACKER® Red, a dye whose cell permeability is pH dependent and emits red fluorescence when incorporated into functional lysosomes acids). […]
Having determined that autophagosomes fuse to active lysosomes in response to BO-110, we assessed whether these organelles interacted with or were recruited to endosomes.

[2] = test system: SK-Mel-103 melanoma cells; experiment: GFP-LC3 foci fluorescence analysis of autophagy; format: cell-based, human; conditions: with BO-110 treatment, 12 h
Procedure: An eGFP-LC3 fusion cloned into the pCNA expression vector was a gift from Gabriel Nidiez (University of Michigan Cancer Center). eGFP-LC3 and the fragments eGFP-Rab7wt, eGFP-Rab7 T22N, eGFP-Rab5wt, eGFP-Cherry-LC3 and Cherry-LC3 were cloned into the pLVO-puro lentiviral vector for stable gene transfer. […] GFP-LC3-associated fluorescence emission was imaged using a LEICA™ AF6000 fluorescence microscope and images were analyzed by LAS AF V1.9 (Leica, Solms, Germany). For confocal real time microscopy, we used a LEICA™ TCS-SP2-AOBS-UV ultra-spectral microscope coupled to a CO2 and temperature-controlled incubation chamber. Images were analyzed by LCS (Leica, Solms, Germany). […] Co-localization images were analyzed with LAS AF V1.9 (Leica, Solms, Germany).
To address the role of autophagy in the response of melanoma to drugs, a discriminative analysis based in GFP-LC3 was used to screen commercially available chemotherapeutic drugs and immunomodulators. Melanoma cells were stably transfected with lentiviral vectors expressing derivatives of the autophagosomal LC3 marker with GFP, such as pLVO-eGFP-LC3.
Subsequent validation studies were performed on a panel of human cell lines of diverse genetic background (see below).

SK-Mel-147 = experiment: Cell death by trypan blue exclusion, SK-Mel-147; format: cell-based, human; conditions: for effect of antioxidant on cell death by BO-110: BO-110 plus ROS scavenger
IFIT-1 [3] = experiment: IFIT-1 mRNA by quantitative PCR, B16 melanoma cells; format: cell-based, mouse
Procedure: (§1) Human interferon alpha was measured in culture supernatants by enzyme-linked immunoabsorbent assay (ELISA). The human IFN-α ELISA Kit and recombinant hIFN-α were purchased from PBL Interferon Source (Piscataway, N.Y.) and used according to the manufacturer's protocol. IFN-α expression level was measured from bone-marrow-derived macrophages (BMDMs) and B16 melanoma cells by real-time PCR. BMDMs were prepared, plated and treated as previously described (Celada et al., 1984). Real-time quantitative PCR analysis of IFIT-1 RNA transcripts was performed using TAQMAN® primer and probes obtained from Applied Biosystems on an Applied Biosystems 7700 sequence detector after normalization with […].
(§2) pIC is a classical inducer of IFN-driven cellular immunity (Wenzel et al., 2008). […] To assess this possibility, B16 melanoma cells and macrophages were tested for their ability to secrete and respond to IFN-α. […] This is expected, as these cells can efficiently sense viral dsRNA.

melanoma = conditions: naked pIC, clinical studies (Robinson et al., 1976); cited from earlier work
NOXA = NOXA protein levels by immunoblotting and densitometry; format: cell-based, human; conditions: SK-Mel-28 or SK-Mel-147 melanoma cells
MDA-5 = MDA-5 proteolytic cleavage by immunoblotting; format: cell-based, human; conditions: SK-Mel-28 and SK-Mel-147 cell extracts
Procedure: This analysis was carried out by immunoblotting extracts from SK-Mel-28 and SK-Mel-147 cells treated with PEI, pIC or BO-110, after subjecting these extracts to electrophoresis. As a positive control for efficient induction of cell death bortezomib was used.

IFIT-1 [4] = experiment: IFIT-1 mRNA by quantitative PCR, bone-marrow-derived macrophages; format: cell-based
Procedure: as §1, §2

SK-Mel-103 cells [5] = experiment: Ultrastructural analysis by transmission electron microscopy; format: cell-based, human; conditions: 5-12 h after treatment
Procedure: For transmission electron microscopy (TEM), the indicated cell populations were rinsed with […] buffer, pH 7.5 and fixed in 2.5% glutaraldehyde for 1.5 h, and subsequently dehydrated and embedded in Spurr's resin. Then, the block was sectioned at 60-100 nm ultra thin sections and picked up on copper grids. For routine analysis ultrathin sections were stained with 2% uranyl acetate and lead citrate. Electron micrographs were acquired with a Philips CM-100 transmission electron microscope (FEI, Hillsbrough, Oreg.) and a KODAK™ 1.6 MEGAPLUS™ digital camera.
The GFP-LC3 focal staining in cells treated with BO-110 described in the previous paragraph is consistent with the formation of autophagosomes. However, to rule out possible unspecific aggregations of ectopically expressed GFP-LC3 (Klionsky et al., 2008), the response was analyzed independently by electron microscopy (FIG. 1D).

[6] = test system: melanoma cell lines (SK-Mel-19, -28, -103, -147, and B16); experiment: Cell death by trypan blue exclusion, melanoma cell lines; format: cell-based, human and murine; conditions: naked pIC versus PEI-complexed pIC
Procedure: (§3) Cell viability assays in response to drug treatments were done after seeding melanocytes and melanoma cells at least 12 hours before drug treatment. The percentage of cell death at the indicated times and treatment concentrations was estimated by standard trypan blue exclusion assays as previously described (Wolter et al., 2007; Fernández et al., 2005).
With these lines, tests were conducted similar to those described in Example 1 for SK-Mel-103 cell line, to verify the sensitivity of each of these cells to pIC and PEI as independent agents or used in combination.

MCL-1 = MCL-1 protein levels by immunoblotting; format: cell-based, human; conditions: melanoma cells
Procedure: To determine changes in protein levels, 2×10^6 cells were treated as indicated and harvested at different times after treatment. Total cell lysates were subjected to electrophoresis in 10, 12 or 4-15% gradient SDS gels under reducing conditions, and subsequently transferred to IMMOBILON-P® (0.45 um pore size hydrophobic polyvinylidene fluoride, PVDF) membranes (Millipore, Bedford, Mass., USA). Protein bands were detected by the ECL system (GE Healthcare, Buckinghamshire, UK).
Secondary antibodies were either anti-mouse or anti-rabbit from GE Healthcare. Image J was used to quantify changes in proteins levels induced by the different treatments, considering untreated controls as reference for basal expression.
To assess similarities and differences between bortezomib and pIC (naked or complexed with PEI), melanoma cells were incubated with each of these compounds and extracts were collected at different time points after treatment to assess the levels of NOXA, MCL-1, and other Bcl-2 family members (Bcl-xL or Bcl-2). Results are shown in FIGS. 9A, 9B, 9C, 9D, 9E, and 9F.

SK-Mel-19 = experiment: Cell death by trypan blue exclusion, SK-Mel-19; format: cell-based, human; conditions: doxorubicin 0.5 μg/ml, 30 h
Procedure: as §3

SK-Mel-28 = experiment: Cell death by trypan blue exclusion, SK-Mel-28; format: cell-based, human; conditions: doxorubicin 0.5 μg/ml, 30 h
Procedure: as §3

[7] = 20 hours after treatment with BO-110

Q: For `CCN(CC)CCCC(C)Nc1ccnc2cc(Cl)ccc12` (stereo not drawn) [chloroquine, Chloroquine], which “inhibitory effect on cell death triggered by BO-110” value (SK-Mel-103; [7]) is on record?
A: blocked melanoma cell death triggered by BO-110

Q: And the “lysosomal proteolysis: DQ-BSA cleavage” value (SK-Mel-103 cells [1])?
A: minimum of fluorescence emission due to DQ-BSA

Q: And the “effect of autophagy inhibitor on GFP-LC3 foci / autophagosomes induced by BO-110” value [2]?
A: autophagosomes accumulated

Q: With vitamin E as the compound, how does the “effect of antioxidant on cell death by BO-110” value (from here on “effect of antioxidant”) (SK-Mel-147) read?
A: no significant effects

Q: Which “induction of IFN target IFIT-1” value (IFIT-1 [3]) does the source give for polyinosine-polycytidylic acid [pIC] here?
A: unable to induce IFIT-1

Q: And the “antitumoral effect for melanoma” value (melanoma)?
A: absence of antitumoral effect for melanoma

Q: What about the “induction of IFN” value (melanoma) of the same compound?
A: low induction of IFN

Q: What about the stability (melanoma) of the same compound?
A: low stability

Q: What about the “NOXA induction (in words)” value (NOXA) of the same compound?
A: failed to induce NOXA consistently or in a sustained manner

Q: And the “induction of MDA-5 processing (30 kD band)” value (MDA-5)?
A: significantly lower levels

Q: What about the “induction of IFN target IFIT-1” value (IFIT-1 [4]) of the same compound?
A: PEI was dispensable for pIC-mediated induction of IFN targets

Q: And the “autophagosome formation (electron microscopy)” value (SK-Mel-103 cells [5])?
A: minimal activity as inducer of autophagy

Q: What about the “reduction of antimelanoma activity of pIC when PEI was not included” value [6] of the same compound?
A: 70-80%

Q: Which “inhibition of BO-110 killing” value (SK-Mel-147; SK-Mel-147, BO-110 plus pan-caspase inhibitor) does the source give for `COC(=O)C[C@H](NC(=O)[C@H](C)NC(=O)[C@@H](NC(=O)OCc1ccccc1)C(C)C)C(=O)CF` [z-VAD-fmk] (Cbz-Val-Ala-Asp(OMe)-CH2F) here?
A: 70%

Q: For `O=S(=O)([O-])c1cc(O)c(O)c(S(=O)(=O)[O-])c1.[Na+].[Na+]` [TIRON™], which “effect of antioxidant” value (SK-Mel-147) is on record?
A: no significant effects

Q: For `Cc1c(C)c2c(c(C)c1O)CCC(C)(C(=O)O)O2` (stereo not drawn) [TROLOX™], which “effect of antioxidant” value (SK-Mel-147) is on record?
A: no significant effects

Q: For `Cn1cnc(N)c2ncnc1-2` [3-MA, 3-methyladenine], which “effect of autophagy inhibitor on GFP-LC3 foci / autophagosomes induced by BO-110” value [2] is on record?
A: blocked GFP-LC3 foci formation by BO-110

Q: With `CC(C)CC(=O)N[C@H](C(=O)N[C@H](C(=O)N[C@@H](CC(C)C)[C@@H](O)CC(=O)N[C@@H](C)C(=O)N[C@@H](CC(C)C)[C@@H](O)CC(=O)O)C(C)C)C(C)C` [pepstatin A] (Isovaleryl-VV[Sta]A[Sta]-OH) as the compound, how does the “reduction of the extent of cell death by BO-110” value (SK-Mel-103; [7]) read?
A: 50%

Q: For `CC(C)C[C@H](NC(=O)[C@H](Cc1ccccc1)NC(=O)c1cnccn1)B(O)O` [bortezomib, Bortezomib], which MCL-1 levels (MCL-1) is on record?
A: induces a simultaneous accumulation of MCL-1

Q: What about the “NOXA induction (in words)” value (NOXA) of the same compound?
A: activates NOXA potently

Q: And the “induction of MDA-5 processing (30 kD band)” value (MDA-5)?
A: no effect on MDA-5 levels or processing

Q: Which “DOX: response to doxorubicin, percentage of cell death” value (from here on “DOX … percentage of cell death”) (SK-Mel-103; SK-Mel-103, doxorubicin 0.5 μg/ml, 30 h) does the source give for `COc1cccc2c1C(=O)c1c(O)c3c(c(O)c1C2=O)C[C@@](O)(C(=O)CO)C[C@@H]3O[C@H]1C[C@H](N)[C@H](O)[C@H](C)O1` [DOX, doxorubicin] here?
A: − (<30%)

Q: What about the “DOX … percentage of cell death” value (SK-Mel-19) of the same compound?
A: ++ (100-70)

Q: What about the “DOX … percentage of cell death” value (SK-Mel-147; SK-Mel-147, doxorubicin 0.5 μg/ml, 30 h) of the same compound?
A: − (<30%)

Q: And the “DOX … percentage of cell death” value (SK-Mel-28)?
A: − (<30%)

Q: With IFN-α as the compound, how does the “effect on melanoma cell viability” value (SK-Mel-103; high doses, 10 times over levels secreted after BO-110, 24 h) read?
A: unable to affect melanoma cell viability

Q: With `CCOC(=O)[C@H]1O[C@@H]1C(=O)N[C@@H](CC(C)C)C(=O)NCCC(C)C` [E64d] as the compound, how does the “reduction of the extent of cell death by BO-110” value (SK-Mel-103; [7]) read?
A: 50%
